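Cultured in 96-well plates, cells were exposed to test compound for 48 hours across five concentrations. TGI marks complete inhibition of growth.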
How the values were obtained:
Experiment in all cases: NCI anticancer screen, dose series, 48 h
UACC-257 melanoma = tested on: UACC-257 melanoma
HCT-15 colon = tested on: HCT-15 colon
MDA-MB-231 breast = tested on: MDA-MB-231 breast
CAKI-1 renal = tested on: CAKI-1 renal
OVCAR-8 ovarian = tested on: OVCAR-8 ovarian
OVCAR-3 ovarian = tested on: OVCAR-3 ovarian
786-0 renal = tested on: 786-0 renal
NCI-H23 lung = tested on: NCI-H23 lung
NCI-H226 lung = tested on: NCI-H226 lung
A549 NSCLC = tested on: A549 NSCLC
MDA-MB-435 = tested on: MDA-MB-435
IGROV1 ovarian = tested on: IGROV1 ovarian
SK-MEL-28 melanoma = tested on: SK-MEL-28 melanoma
A498 renal = tested on: A498 renal
SF-539 CNS = tested on: SF-539 CNS
KM12 colon = tested on: KM12 colon
T-47D breast = tested on: T-47D breast
BT-549 breast = tested on: BT-549 breast
HCT-116 colon = tested on: HCT-116 colon
HCC-2998 colon = tested on: HCC-2998 colon
NCI-H460 lung = tested on: NCI-H460 lung
MALME-3M melanoma = tested on: MALME-3M melanoma
SW-620 colon = tested on: SW-620 colon
U251 CNS = tested on: U251 CNS
M14 melanoma = tested on: M14 melanoma
SNB-19 CNS = tested on: SNB-19 CNS
HS 578T breast = tested on: HS 578T breast
CCRF-CEM leukemia = tested on: CCRF-CEM leukemia
SF-268 CNS = tested on: SF-268 CNS
COLO 205 colon = tested on: COLO 205 colon
K-562 leukemia = tested on: K-562 leukemia
SNB-75 CNS = tested on: SNB-75 CNS
MOLT-4 leukemia = tested on: MOLT-4 leukemia
LOX IMVI melanoma = tested on: LOX IMVI melanoma
SK-MEL-5 melanoma = tested on: SK-MEL-5 melanoma
MDA-N = tested on: MDA-N
ACHN renal = tested on: ACHN renal
SR leukemia = tested on: SR leukemia
SN12C renal = tested on: SN12C renal
UACC-62 melanoma = tested on: UACC-62 melanoma
SK-OV-3 ovarian = tested on: SK-OV-3 ovarian
OVCAR-5 ovarian = tested on: OVCAR-5 ovarian
RXF 393 renal = tested on: RXF 393 renal
RPMI-8226 leukemia = tested on: RPMI-8226 leukemia
DU-145 prostate = tested on: DU-145 prostate
SF-295 CNS = tested on: SF-295 CNS
HL-60(TB) leukemia = tested on: HL-60(TB) leukemia
HT29 colon = tested on: HT29 colon
TK-10 renal = tested on: TK-10 renal
EKVX NSCLC = tested on: EKVX NSCLC
MCF7 breast = tested on: MCF7 breast
SK-MEL-2 melanoma = tested on: SK-MEL-2 melanoma
PC-3 prostate = tested on: PC-3 prostate
HOP-62 NSCLC = tested on: HOP-62 NSCLC
NCI-H522 lung = tested on: NCI-H522 lung
UO-31 renal = tested on: UO-31 renal

Question: For COc1cccc(C2c3cc4c(cc3OC(NNc3ccccc3)C2C)OCO4)c1OC (stereo unspecified), which TGI (UACC-257 melanoma) is on record?
Answer: 71.5 µM

Question: And the TGI (HCT-15 colon)?
Answer: > 100 µM

Question: And the TGI (MDA-MB-231 breast)?
Answer: > 100 µM

Question: And the TGI (CAKI-1 renal)?
Answer: > 100 µM

Question: And the TGI (OVCAR-8 ovarian)?
Answer: > 100 µM

Question: What about the TGI (OVCAR-3 ovarian) of the same molecule?
Answer: 24 µM

Question: What about the TGI (786-0 renal) of the same molecule?
Answer: > 100 µM

Question: What about the TGI (NCI-H23 lung) of the same molecule?
Answer: 96.9 µM

Question: What about the TGI (NCI-H226 lung) of the same molecule?
Answer: 74.4 µM

Question: And the TGI (A549 NSCLC)?
Answer: > 100 µM

Question: And the TGI (MDA-MB-435)?
Answer: > 100 µM

Question: And the TGI (IGROV1 ovarian)?
Answer: > 100 µM

Question: What about the TGI (SK-MEL-28 melanoma) of the same molecule?
Answer: > 100 µM

Question: What about the TGI (A498 renal) of the same molecule?
Answer: 88.1 µM

Question: And the TGI (SF-539 CNS)?
Answer: 84.2 µM

Question: And the TGI (KM12 colon)?
Answer: > 100 µM

Question: What about the TGI (T-47D breast) of the same molecule?
Answer: > 100 µM

Question: And the TGI (BT-549 breast)?
Answer: 67.2 µM

Question: What about the TGI (HCT-116 colon) of the same molecule?
Answer: 23.4 µM

Question: What about the TGI (HCC-2998 colon) of the same molecule?
Answer: 6.79 µM

Question: And the TGI (NCI-H460 lung)?
Answer: > 100 µM

Question: And the TGI (MALME-3M melanoma)?
Answer: 70.7 µM

Question: What about the TGI (SW-620 colon) of the same molecule?
Answer: > 100 µM

Question: And the TGI (U251 CNS)?
Answer: > 100 µM

Question: What about the TGI (M14 melanoma) of the same molecule?
Answer: > 100 µM

Question: What about the TGI (SNB-19 CNS) of the same molecule?
Answer: > 100 µM

Question: And the TGI (HS 578T breast)?
Answer: 80.1 µM

Question: And the TGI (CCRF-CEM leukemia)?
Answer: 31.6 µM

Question: And the TGI (SF-268 CNS)?
Answer: > 100 µM

Question: And the TGI (COLO 205 colon)?
Answer: 15.7 µM

Question: And the TGI (K-562 leukemia)?
Answer: 9.05 µM

Question: What about the TGI (SNB-75 CNS) of the same molecule?
Answer: > 100 µM

Question: What about the TGI (MOLT-4 leukemia) of the same molecule?
Answer: 53.3 µM

Question: What about the TGI (LOX IMVI melanoma) of the same molecule?
Answer: > 100 µM

Question: What about the TGI (SK-MEL-5 melanoma) of the same molecule?
Answer: > 100 µM

Question: What about the TGI (MDA-N) of the same molecule?
Answer: > 100 µM

Question: What about the TGI (ACHN renal) of the same molecule?
Answer: > 100 µM

Question: And the TGI (SR leukemia)?
Answer: 18.8 µM

Question: What about the TGI (SN12C renal) of the same molecule?
Answer: > 100 µM

Question: What about the TGI (UACC-62 melanoma) of the same molecule?
Answer: > 100 µM

Question: What about the TGI (SK-OV-3 ovarian) of the same molecule?
Answer: > 100 µM

Question: What about the TGI (OVCAR-5 ovarian) of the same molecule?
Answer: > 100 µM

Question: What about the TGI (RXF 393 renal) of the same molecule?
Answer: 44.1 µM

Question: What about the TGI (RPMI-8226 leukemia) of the same molecule?
Answer: > 100 µM

Question: And the TGI (DU-145 prostate)?
Answer: 68.7 µM

Question: And the TGI (SF-295 CNS)?
Answer: 4.24 µM

Question: And the TGI (HL-60(TB) leukemia)?
Answer: 17 µM

Question: And the TGI (HT29 colon)?
Answer: 58.2 µM

Question: And the TGI (TK-10 renal)?
Answer: 25.1 µM

Question: And the TGI (EKVX NSCLC)?
Answer: 32.3 µM

Question: And the TGI (MCF7 breast)?
Answer: 76.2 µM

Question: And the TGI (SK-MEL-2 melanoma)?
Answer: > 100 µM

Question: What about the TGI (PC-3 prostate) of the same molecule?
Answer: 46.6 µM

Question: And the TGI (HOP-62 NSCLC)?
Answer: > 100 µM

Question: What about the TGI (NCI-H522 lung) of the same molecule?
Answer: > 100 µM

Question: What about the TGI (UO-31 renal) of the same molecule?
Answer: > 100 µM

Reference: PubChem BioAssay (NCI)
